Reference: PubChem BioAssay AID1259407 (Chemical Carcinogenesis Research Information System (CCRIS), 2018)
The source made the active and inactive calls. The rule behind the calls is not given here.

Tested on: CCRIS mutagenicity, Ames/micronucleus/aberration tests
Assay: CCRIS mutagenicity studies
[1] = Test System: AMES SALMONELLA TYPHIMURIUM, Strain/Indicator: TA100, Metabolic Activation: NONE, Method: STANDARD PLATE

SMILES	mutagenic call (Test System: AMES SALMONELLA TYPHIMURIUM, Strain/Indicator: G46, Metabolic Activation: NONE, Method: STANDARD PLATE)	mutagenic call (Test System: AMES SALMONELLA TYPHIMURIUM, Strain/Indicator: G46, Metabolic Activation: RAT, LIVER, S-9, PHENOBARBITAL, Method: STANDARD PLATE)	mutagenic call (Test System: AMES SALMONELLA TYPHIMURIUM, Strain/Indicator: TA92, Metabolic Activation: NONE, Method: STANDARD PLATE)	mutagenic call (Test System: AMES SALMONELLA TYPHIMURIUM, Strain/Indicator: TA92, Metabolic Activation: RAT, LIVER, S-9, PHENOBARBITAL, Method: PREINCUBATION)	mutagenic call (Test System: AMES SALMONELLA TYPHIMURIUM, Strain/Indicator: TA92, Metabolic Activation: RAT, LIVER, S-9, PHENOBARBITAL, Method: STANDARD PLATE)	mutagenic call [1]	mutagenic call (Test System: AMES SALMONELLA TYPHIMURIUM, Strain/Indicator: TA100, Metabolic Activation: RAT, LIVER, S-9, PHENOBARBITAL, Method: STANDARD PLATE)	mutagenic call (Test System: E. COLI, Strain/Indicator: TM6, Metabolic Activation: NONE, Method: STANDARD PLATE)	mutagenic call (Test System: E. COLI, Strain/Indicator: TM6, Metabolic Activation: RAT, LIVER, S-9 PHENOBARBITAL, Method: STANDARD PLATE)	mutagenic call (Test System: E. COLI, Strain/Indicator: TM9, Metabolic Activation: NONE, Method: STANDARD PLATE)	mutagenic call (Test System: E. COLI, Strain/Indicator: TM9, Metabolic Activation: RAT, LIVER, S-9 PHENOBARBITAL, Method: STANDARD PLATE)	mutagenic call (Test System: E. COLI, Strain/Indicator: WP2, Metabolic Activation: NONE, Method: STANDARD PLATE)	mutagenic call (Test System: E. COLI, Strain/Indicator: WP2, Metabolic Activation: RAT, LIVER, S-9 PHENOBARBITAL, Method: STANDARD PLATE)	mutagenic call (Test System: E. COLI, Strain/Indicator: WP2 UVRA, Metabolic Activation: NONE, Method: STANDARD PLATE)	mutagenic call (Test System: E. COLI, Strain/Indicator: WP2 UVRA, Metabolic Activation: RAT, LIVER, S-9 PHENOBARBITAL, Method: STANDARD PLATE)
CN(C)N=Nc1ccc(C(=O)O)cc1	inactive; negative	active; positive	active; positive	inactive; negative	inactive; negative	inactive; negative	inactive; negative	active; positive	active; positive	active; positive	active; positive	active; positive	active; positive	active; positive	active; positive
Cl.Cl.[Cr].c1ccc(-c2ccccn2)nc1.c1ccc(-c2ccccn2)nc1	–	–	–	–	–	active; positive	–	–	–	–	–	–	–	–	–
